Consider 1 substance from patent US9782472B2, “Therapeutic compositions and methods for treating HIV including identification and manipulation of particular domains associated with immunogenicity” (The Regents of The University of California, priority 2008, dated 2017).

What all share (format): cell-based, HIV-1
For one test, the system named is 108051_005 wtR. The source says:
(§1) Construction of envelope gene libraries and pseudoviruses. Libraries of envelope glycoprotein were created from each subject by PCR amplification of full length envelope genes from cryopreserved plasma using the method described previously. The swarm of PCR products was cloned into a plasmid expression vector useful for the construction of pseudoviruses. The vector was specifically designed to permit the construction of pseudovirus libraries for use in a well-established and validated virus neutralization assay. However, instead of pooling all of the clones together and carrying out neutralization assays or drug sensitivity assays with an entire library of cloned genes from each infected individual as had been done previously, we plated out the plasmid library on agar plates and picked 24-48 clones from each individual for infectivity studies. The plasmid DNA was isolated from each clone and used to create a stock of pseudovirus particles that were then screened for infectivity, and chemokine receptor usage. After verifying infectivity and receptor usage, we then selected approximately ten CCR5-dependent pseudotype viruses with good infectivity for virus neutralization assays. The virus neutralization assays were carried out as described by Schweighardt et al.
(§2) Virus neutralization assay. The automated virus neutralization assay described in this study has been described previously. The neutralization data reported represent IC50 values calculated from serum dilution curves. This assay employs multiple assay controls, including a positive pseudotype virus control panel and a negative pseudotype virus control panel. Assay acceptability criteria have been established to minimize interassay variability and assure comparability of data from different experiments. The positive virus control panel includes the pseudotypes from the neutralization sensitive isolate, NL43, and the less neutralization sensitive primary isolate JRcsf. The negative virus (specificity) control consists of pseudotype viruses prepared from the envelope of the amphitropic murine leukemia virus.

The subject of the next test is 108051_006 wtS.
Text: as §1, §2

The next test concerns 108060 clone 022 wtR. As to conditions: 108060_022 wtR; 50% inhibition in target cell infection.
Text: as §1, §2

The test system of the next test is 108060 clone 024 wtS.
Text: as §1, §2

The subject of the next test is 108069_005 wtR.
Text: as §1, §2

The next test deals with 108069_011 wtS.
Text: as §1, §2

In the next test the test system is 108051_005 Q655R. As to conditions: 108051_005 Q655R (numbering of 108060).
Text: as §1
(§3) Sequencing and mutagenesis. Plasmids containing cloned envelope glycoproteins were sequenced using fluorescently labeled dideoxynucleotides at either Monogram Biosciences or the University of California Sequencing Facility (Berkeley, Calif.) using capillary electrophoresis sequencing devices (Applied Biosystems, Foster City, Calif.). HIV envelope glycoprotein sequences were mutagenized by a mismatched primer method using the QuikChange Mutagenesis kit (Stratagene, San Diego). All mutations were confirmed by DNA sequencing. The numbering of amino acids is made with reference to the sequence of gp160 from clone 022 of from subject 108060. Position 655 corresponds to position 653 of the HXB2 reference strain of HIV-1.
as §2

Another test deals with 108060_022 Q655R.
Text: as §1, §3, §2

Another test concerns 108060_024 R655Q.
Text: as §1, §3, §2

The next test relates to 108069_005 Q655R.
Text: as §1, §3, §2

Take enfuvirtide: the “IC50 of indicated MAb or fusion inhibitor” value in the test with 108051_005 wtR worked out at 0.088 µg/mL; in the test on 108051_006 wtS, 0.008 µg/mL; in the test on 108060 clone 022 wtR, 0.068 µg/mL; with 108060 clone 024 wtS (108060_024 wtS) it was 0.019 µg/mL; in the test with 108069_005 wtR it was 0.071 µg/mL; in the test on 108069_011 wtS, 0.145 µg/mL. In addition, the “IC50 of indicated MAb or fusion inhibitor” value in the test on 108051_005 Q655R is 0.036 µg/mL; in the test on 108060_022 Q655R (108060_022 Q655R) it was 0.004 µg/mL; in the test with 108060_024 R655Q, 0.130 µg/mL; with 108069_005 Q655R (108069_005 Q655R (numbering of 108060)) it was 0.011 µg/mL. In addition, the “Fold more sensitive to neutralization” value with 108060 clone 024 wtS (clone 024 compared with clone 022 of subject 108060) came to 3.5 fold. The “Fold increase in neutralization sensitivity” value in the test on 108060_022 Q655R (108060_022 Q655R compared with wild-type clone 022) amounted to 17 fold. For the same substance, in the test on 108069_005 Q655R (Q to R at position corresponding to 655 in the 108069 virus, versus parental virus), the “Fold increase in sensitivity” value was “more than 17 fold”.
